Measured values from patent publication US20200407717A1, “METHODS OF MODULATING ANTISENSE ACTIVITY” (Ionis Pharmaceuticals, Inc., priority 2018, published 2020).
e = 2'-O-(2-methoxyethyl) (MOE); d = 2'-deoxy (DNA)

Target: EGFR (Homo sapiens, UniProt P00533)
Assay: Competitive NanoBRET binding assay
Parameters: made in house; host or cells: HEK293 cells
Details: Competitive BRET vs 10 nM AF594-labeled 766636; Table 6
Experimental: NanoBRET (bioluminescence resonance energy transfer) binding assays were performed as described in Vickers and Crooke. PLOS One, 11(8), (2016). An EGFR NLuc construct was prepared by first amplifying human EGFR from the full length cDNA clone (Origene RC217223) with forward PCR primer 5′-[…]-3′ (SEQ ID NO: 1) and reverse PCR primer 5′-[…] (SEQ ID NO: 2). The amplified product was ligated into the NheI and XhoI sites of the NanoLuc expression vector pFC32K Nluc CMV-Neo (Promega). Protein was expressed in HEK293 cells and isolated using Protein G magnetic beads. For competitive BRET, the Alexafluor594-labeled modified oligonucleotide 766636 was diluted into water in opaque white 96-well plates at 10 nM and competed with 0.1-10,000 nM of unlabeled modified oligonucleotide. […] of 2× binding buffer containing […] (relative luminescence units) beads/well was added and plates were shaken for 10 minutes at room temperature. Nanoluciferase activity and BRET were measured in a Glowmax Discover plate reader and EC50 values, shown in the tables below, were calculated using GraphPad Prism. For direct BRET, Alexafluor594 modified nucleotides were diluted at 0.1-10,000 nM and experiments were performed as described above.

Sequence | EC50 [nM]
AGGAAGGAAGCTGGCGATCT (sugars from the 5' end e5 d10 e5, all phosphorothioate, methylation of C not given here) [compound 25690] | 1450
GGCATATGCAGATAATGTTC (sugars from the 5' end e5 d10 e5, all phosphorothioate, methylation of C not given here) [compound 395254] | 1240
